The results in this text go back to patent US6468995B1, “Cephem compounds” (Fujisawa Pharmaceutical Co., Ltd., priority 1993, dated 2002).

The nature of the data set: Stability test of the crystal. As to conditions: crystal containing 1/3 isopropanol. Type of data set: physicochemical.

In the case of `Nc1nc(/C(=N/O)C(=O)N[C@@H]2C(=O)N3C(C(=O)O)=C(SCc4cn[nH]c4)CS[C@H]23)cs1` [Example 37, 7β-[2-(2-aminothiazol-4-yl)-2-(Z)-(hydroxyimino)acetamido]-3-[(pyrazol-4-yl)methylthio]-3-cephem-4-carboxylic acid containing 1/3 isopropanol], the “stability in the stability test” value is on record as “stable”.
